Assay results as given in ChEMBL document CHEMBL4725219, “Identification and in silico prediction of metabolites of tebufenozide derivatives by major human cytochrome P450 isoforms” (Bioorg Med Chem, 2020).

Columns and labels:
[1] = biological target: T1, Cytochrome P450 1A2 (Homo sapiens, UniProt P05177); assay: Drug metabolism in microsomes containing baculovirus expressing human CYP1A2 assessed as CYP1A2-mediated hydroxylation by LC/MS/MS analysis; assay type: ADME, Microsome
T1 sequence (P05177 whole entry): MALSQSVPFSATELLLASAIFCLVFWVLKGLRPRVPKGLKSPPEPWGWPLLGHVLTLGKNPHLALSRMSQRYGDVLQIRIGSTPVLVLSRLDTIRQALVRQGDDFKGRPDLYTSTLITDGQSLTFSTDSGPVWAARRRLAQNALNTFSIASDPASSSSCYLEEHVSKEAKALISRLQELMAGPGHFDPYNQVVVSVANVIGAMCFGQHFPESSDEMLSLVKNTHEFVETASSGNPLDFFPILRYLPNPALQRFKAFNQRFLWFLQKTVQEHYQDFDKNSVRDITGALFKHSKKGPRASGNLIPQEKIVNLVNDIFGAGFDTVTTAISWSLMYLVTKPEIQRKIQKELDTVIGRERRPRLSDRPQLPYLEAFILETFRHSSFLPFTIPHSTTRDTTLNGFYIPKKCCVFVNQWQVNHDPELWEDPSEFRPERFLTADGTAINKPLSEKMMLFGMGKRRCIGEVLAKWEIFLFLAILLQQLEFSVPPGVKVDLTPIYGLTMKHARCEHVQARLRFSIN

[2] = Drug metabolism in recombinant Saccharomyces cerevisiae AH22 cells expressing human CYP3A4/CYP2C9 assessed as CYP-mediated hydroxylation at methyl group of A-ring by measuring retention time of the metabolite at 100 uM incubated for 24 hrs by HPLC analysis; assay type: ADME
[3] = Drug metabolism in recombinant Saccharomyces cerevisiae AH22 cells expressing human CYP3A4/CYP2C9 assessed as CYP-mediated hydroxylation at CH3-isopropyl group of B ring by measuring retention time of the metabolite at 100 uM incubated for 24 hrs by HPLC analysis; assay type: ADME
[4] = Drug metabolism in recombinant Saccharomyces cerevisiae AH22 cells expressing human CYP3A4/CYP2C9 assessed as CYP-mediated hydroxylation at CH-isopropyl group of B-ring by measuring retention time of the metabolite at 100 uM incubated for 24 hrs by HPLC analysis; assay type: ADME
[5] = biological target: T2, Cytochrome P450 3A4 (Homo sapiens, UniProt P08684); assay: Drug metabolism in recombinant Saccharomyces cerevisiae AH22 cells expressing human CYP3A4 assessed as CYP3A4-mediated hydroxylation at methyl group of A-ring by measuring retention time of the metabolite at 39 uM incubated for 24 hrs by HPLC analysis; assay type: ADME; conditions: recombinant enzyme
[6] = biological target: T2, Cytochrome P450 3A4; assay: Drug metabolism in recombinant Saccharomyces cerevisiae AH22 cells expressing human CYP3A4 assessed as CYP3A4-mediated hydroxylation at methyl group of B-ring by measuring retention time of the metabolite at 39 uM incubated for 24 hrs by HPLC analysis; assay type: ADME; conditions: recombinant enzyme
[7] = biological target: Cytochrome P450 2C9 (Homo sapiens, UniProt P11712); assay: Drug metabolism in microsomes containing baculovirus expressing human CYP2C9 assessed as CYP2C9-mediated hydroxylation at methyl group of A-ring by LC/MS/MS analysis relative to control; assay type: ADME, Microsome
[8] = biological target: T2, Cytochrome P450 3A4; assay: Drug metabolism in recombinant Saccharomyces cerevisiae AH22 cells expressing human CYP3A4 assessed as CYP3A4-mediated hydroxylation at t-butyl group by measuring retention time of the metabolite at 39 uM incubated for 24 hrs by HPLC analysis; assay type: ADME; conditions: recombinant enzyme
[9] = biological target: Cytochrome P450 2D6 (Homo sapiens, UniProt P10635); assay: Drug metabolism in microsomes containing baculovirus expressing human CYP2D6 assessed as CYP2D6-mediated hydroxylation at methyl group of A-ring by LC/MS/MS analysis relative to control; assay type: ADME, Microsome
Cytochrome P450 2D6, sequence (P10635 whole entry): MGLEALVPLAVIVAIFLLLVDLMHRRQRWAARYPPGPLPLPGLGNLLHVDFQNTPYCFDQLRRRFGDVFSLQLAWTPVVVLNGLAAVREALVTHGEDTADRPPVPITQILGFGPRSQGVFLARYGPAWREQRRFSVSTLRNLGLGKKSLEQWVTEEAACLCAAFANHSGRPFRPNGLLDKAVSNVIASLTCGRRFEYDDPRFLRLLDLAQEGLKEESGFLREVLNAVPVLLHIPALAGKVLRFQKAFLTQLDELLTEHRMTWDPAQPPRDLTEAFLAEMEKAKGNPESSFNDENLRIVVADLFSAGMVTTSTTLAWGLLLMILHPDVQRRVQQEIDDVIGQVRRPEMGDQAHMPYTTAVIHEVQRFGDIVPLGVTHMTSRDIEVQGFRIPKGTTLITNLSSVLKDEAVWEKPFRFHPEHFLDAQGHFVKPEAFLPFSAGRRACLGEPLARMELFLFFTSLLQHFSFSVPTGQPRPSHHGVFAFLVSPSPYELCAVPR

T2 sequence (P08684 whole entry): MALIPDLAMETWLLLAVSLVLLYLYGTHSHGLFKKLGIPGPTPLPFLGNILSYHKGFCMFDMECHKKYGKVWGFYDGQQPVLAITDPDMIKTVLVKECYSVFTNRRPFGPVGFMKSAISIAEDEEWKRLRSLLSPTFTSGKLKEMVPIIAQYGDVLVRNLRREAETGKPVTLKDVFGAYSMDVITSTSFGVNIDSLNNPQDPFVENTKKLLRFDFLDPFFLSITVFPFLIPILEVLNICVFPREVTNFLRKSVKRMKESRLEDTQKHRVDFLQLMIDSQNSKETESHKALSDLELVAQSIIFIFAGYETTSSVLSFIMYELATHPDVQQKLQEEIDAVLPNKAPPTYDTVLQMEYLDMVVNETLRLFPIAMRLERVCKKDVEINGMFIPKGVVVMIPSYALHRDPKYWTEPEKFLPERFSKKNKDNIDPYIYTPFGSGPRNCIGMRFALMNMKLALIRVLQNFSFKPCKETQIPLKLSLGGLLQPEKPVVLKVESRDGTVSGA
Cytochrome P450 2C9, sequence (P11712 whole entry): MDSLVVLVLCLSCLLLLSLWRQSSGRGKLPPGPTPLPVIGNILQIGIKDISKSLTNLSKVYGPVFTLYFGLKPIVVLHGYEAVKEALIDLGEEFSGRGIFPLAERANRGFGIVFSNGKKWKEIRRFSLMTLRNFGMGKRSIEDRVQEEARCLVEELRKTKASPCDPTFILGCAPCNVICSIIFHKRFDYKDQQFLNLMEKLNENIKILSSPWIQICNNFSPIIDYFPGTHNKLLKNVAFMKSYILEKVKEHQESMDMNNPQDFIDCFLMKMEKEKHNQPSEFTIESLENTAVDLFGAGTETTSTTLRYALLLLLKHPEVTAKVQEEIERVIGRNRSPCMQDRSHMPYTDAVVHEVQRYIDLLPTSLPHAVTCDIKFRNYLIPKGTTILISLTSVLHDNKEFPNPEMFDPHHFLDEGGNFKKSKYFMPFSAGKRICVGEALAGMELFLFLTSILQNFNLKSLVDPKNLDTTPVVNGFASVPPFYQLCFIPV

| Compound | Drug metabolism [1] | Retention_time [2] [min] | Retention_time [3] [min] | Retention_time [4] [min] | Retention_time [5] [min] | Retention_time [6] [min] | Drug metabolism [7] | Retention_time [8] [min] | Drug metabolism [9] |
| --- | --- | --- | --- | --- | --- | --- | --- | --- | --- |
| Cc1cc(C)cc(C(=O)N(NC(=O)c2ccccc2C)C(C)(C)C)c1 | Metabolite_Notdetected |  |  |  |  |  |  |  |  |
| Cc1cc(C)cc(C(=O)N(NC(=O)c2ccc(C(C)C)cc2)C(C)(C)C)c1 | Metabolite_Notdetected | 17.7 | 12 | 13.9 |  |  |  |  |  |
| Cc1cccc(C(=O)NN(C(=O)c2cc(C)cc(C)c2)C(C)(C)C)c1 | Metabolite_Notdetected |  |  |  | 17.4 | 16.1 | Metabolite_Detected | 16.1 | Metabolite_Detected |
